Reference: patent US20230301885A1, “NOVEL USE” (DSM IP ASSETS B.V., priority 2020, published 2023)

Assays:
C.simulans = assay: Microbiome balance model, sebaceous skin mixture: C. simulans; format: cell-based, Corynebacterium simulans; details: 4 h at 37° C.
Experimental: (§1) Thus, in particular the term ‘by not unproportionally affecting the growth of anyone thereof’ refers to a balancing of at least two, preferably all dry skin or sebaceous skin microbes as defined herein in the mutual presence thereof, wherein only small changes in the difference in the (individual) shares of the microbes compared to the corresponding shares of the control are observed. Preferably, the small changes in the (individual) share (after 4 h of incubation at 37° C.) is less than ±15%, in particular less than ±10%, most in particular less than ±7.5%, compared to the control. Said change in the share is calculated as: share of the respective microbe within the group of at least two, preferably all microbes of dry or sebaceous skin in the presence of 1,3-PDO [%] minus share of the same microbe within the same group of microbes in the absence of 1,3-PDO [%], both after 4 h of incubation at 37° C. as illustrated in the example.
(§2) The ‘not unproportionally affected growth’ can also be assessed by determining an overall impact value, by • (1) assessing the impact of the ingredient on the individual microbe (i) and assigning an individual impact value x′(i) to said microbe as outlined below: • [formula] • If x(i) is • a) ≤ 0.1 then an integer x′(i) of 1 is assigned (no impact) • b) >0.1 ≤ 0.5then an integer x′(i) of 2 is assigned (slight impact) • c) > 0.5 then an integer x′(i) of 3 is assigned (significant impact), followed by • (2) assessing the overall effect of the ingredient on the respective microbiome by calculating the overall impact value y with formula (II) • [formula] • with n being the total number of microbes in the respective microbiota, wherein a good balancing is characterized by an overall impact value y of less than 2, preferably less than 1.75, most preferably less than 1.7.
(§3) 5 mL of TSB (Tryptic Say Broth) to which no (Ref.1) or 500 µL of 2 wt.-% of 1,3-propanediol (1,3-PDO) in PBS (Phosphate-buffered saline) have been added. Then this solutions have been inoculated by 500 µL of the respective calibrated mixture of the microbes as outlined below. Directly after inoculation and/or after 4 hours of incubation at 37° C., 100 µL have been taken and plated on an Agar gel petri dish. The microbes have then been counted based on the colony specific morphology and/or size.
(§4) All shares have been rounded.

S. mitis = assay: Microbiome balance model, sebaceous skin mixture: S. mitis; format: cell-based, Streptococcus mitis; details: 4 h at 37° C.
Experimental: as §1, §2, §3, §4

M. globosa = assay: Microbiome balance model, sebaceous skin mixture: M. globosa; format: cell-based, Malassezia globosa; details: 4 h at 37° C.
Experimental: as §1, §2, §3, §4

S. epidermidis [1] = assay: Microbiome balance model, sebaceous skin mixture: S. epidermidis; format: cell-based, Staphylococcus epidermidis; details: 4 h at 37° C.
Experimental: as §1, §2, §3, §4

S. aureus = assay: Microbiome balance model, S. epidermidis/S. aureus co-culture: S. aureus; format: cell-based, Staphylococcus aureus; details: co-culture with S. epidermidis
Experimental: (§5) The term ‘share’ as used herein refers to the share of each (individual) microbe, based on the total number of microbes in the respective group of microbes in % (i.e. the at least two, preferably all dry or sebaceous skin microbes as defined herein, respectively S. epidermidis and ), either before or after inoculation (as indicated). The share is calculated using the colony count of the respective (individual) microbe divided by the sum of the colony counts of all microbes of the respective microbiota * 100%.
as §3, §4

C. acnes = assay: Microbiome balance model, sebaceous skin mixture: C. acnes; format: cell-based, Cutibacterium acnes; details: 4 h at 37° C.
Experimental: as §1, §2, §3, §4

S. hominis = assay: Microbiome balance model, sebaceous skin mixture: S. hominis; format: cell-based, Staphylococcus hominis; details: 4 h at 37° C.
Experimental: as §1, §2, §3, §4

S. capitis = assay: Microbiome balance model, sebaceous skin mixture: S. capitis; format: cell-based, Staphylococcus capitis; details: 4 h at 37° C.
Experimental: as §1, §2, §3, §4

S. epidermidis [2] = assay: Microbiome balance model, S. epidermidis/S. aureus co-culture: S. epidermidis; format: cell-based, Staphylococcus epidermidis; details: co-culture with S. aureus
Experimental: as §5, §3, §4

[3] = test system: microbes of sebaceous skin; assay: Microbiome balance model, sebaceous skin mixture: total of all microbes; format: cell-based; details: 4 h at 37° C.
Experimental: Preferably, the difference in total number of said at least two, preferably all microbes, compared to the respective total number in the absence of 1,3-propanediol (i.e. the control), after 4 h of incubation at 37° C., is within a range of ±50%, preferably ±40%, more preferably ±15%, most preferably ±10%.
as §2, §3, §4

[4] = after 4 hours of incubation at 37° C.
[5] = directly after inoculation, 500 µL of 2 wt.-% in PBS in 5 mL TSB

CCCC(O)CO (stereo not shown) [pentylene glycol, 1,2-pentanediol, reference compound]
C.simulans change in share vs control (C.simulans): -3%^1
C.simulans counts of colony (C.simulans): 450 CFU/ml
C.simulans share (C.simulans): 4%
C.simulans valuation, impact value x(i)′ (C.simulans): 2^3 (>0.1 ≤ 0.5then an integer x′(i) of 2 is assigned (slight impact))
S. mitis change in share vs control (S. mitis): +0.5%^1
S. mitis counts of colony (S. mitis): 380 CFU/ml
S. mitis share (S. mitis): 4%
S. mitis valuation, impact value x(i)′ (S. mitis): 2^3 (>0.1 ≤ 0.5then an integer x′(i) of 2 is assigned (slight impact))
M. globosa change in share vs control (M. globosa): +1%^1
M. globosa counts of colony (M. globosa): 830 CFU/ml
M. globosa share (M. globosa): 8%
M. globosa valuation, impact value x(i)′ (M. globosa): 2^3 (>0.1 ≤ 0.5then an integer x′(i) of 2 is assigned (slight impact))
S. epidermidis change in share vs control (S. epidermidis [1]): +17%^1
S. epidermidis counts of colony (S. epidermidis [1]): 3300 CFU/ml
S. epidermidis share (S. epidermidis [1]): 32%
S. epidermidis valuation, impact value x(i)′ (S. epidermidis [1]): 3^3 (> 0.5 then an integer x′(i) of 3 is assigned (significant impact))
share of S. aureus, effect in words (S. aureus; 4 hours of incubation): not reduced
CSA4h counts of colony of S. aureus (S. aureus; [4]): 3900 CFU/ml
CSA4h share of S. aureus (S. aureus; [4]): 45%
CSA0 share of S. aureus (S. aureus; directly after inoculation): 20%
CSA0 counts of colony of S. aureus (S. aureus; [5]): 280 CFU/ml
C. acnes change in share vs control (C. acnes): -19.5%^1
C. acnes counts of colony (C. acnes): 2000 CFU/ml
C. acnes share (C. acnes): 20%
C. acnes valuation, impact value x(i)′ (C. acnes): 3^3 (> 0.5 then an integer x′(i) of 3 is assigned (significant impact))
S. hominis counts of colony (S. hominis): 2100 CFU/ml
S. hominis share (S. hominis): 21%
S. hominis valuation, impact value x(i)′ (S. hominis): 2^3 (>0.1 ≤ 0.5then an integer x′(i) of 2 is assigned (slight impact))
S. capitis counts of colony (S. capitis): 1100 CFU/ml
S. capitis share (S. capitis): 11%
S. capitis valuation, impact value x(i)′ (S. capitis): 3^3 (> 0.5 then an integer x′(i) of 3 is assigned (significant impact))
CSE4h counts of colony of S. epidermidis (S. epidermidis [2]; [4]): 3200 CFU/ml
CSE4h share of S. epidermidis (S. epidermidis [2]; [4]): 55%
CSE0 share of S. epidermidis (S. epidermidis [2]; directly after inoculation): 80%
CSE0 counts of colony of S. epidermidis (S. epidermidis [2]; [5]): 1100 CFU/ml
Change of total CFU/ml vs control [3]: +2.60%^2
Total counts of colony [3]: 10160 CFU/ml
Total share [3]: 100%
overall impact value y [3]: 2.4^4
share of the microbes of sebaceous skin, effect in words ([3]; in contrast to 1,3-propanediol): alter the share of the microbes of sebaceous skin to a greater extend
